Measured values as given in patent publication US8715697B2, “Genes associated with Leishmania parasite virulence” (priority 2001, dated 2014).
Where a SMILES comes first, the peptide text is derived from it. Bridges are numbered along the chain shown (N, C = ends). Where no end group is shown, it is not given here. [ ]: non-standard residue; d: D form. The star is where a group is joined. Ileψ(thiazoline)Cys = CC[C@H](C)[C@H](N)C1=N[C@H](C(=O)*)CS1; dOrn = NCCC[C@@H](N)C(=O)O

Assays:
[1] = test system: L. major parasites in the exponential growth phase; assay: Inhibition of parasite (L. major) growth in a liquid medium by PDI inhibitors; format: cell-based, Leishmania major; details: for growth of Leishmania in a liquid medium (summary statement): no concentration stated, refers to Example 4; for concentration that completely inhibited the growth of L. major in a liquid medium: counted every 24 h over 96 h, FIG. 9 and FIG. 11
Experimental: They are growth curves taken over 96 hours, for promastigotes of L major in the presence of 0, 1 mM, 1.5 mM or 2 mM of bacitracin.
Different concentrations of inhibitors (0 to 5 mM) were used to follow the effect of PDI inhibitors on the multiplication of parasites in vitro. Parasites that had not been treated with inhibitors (T) were selected as a control for these experiments.
With the aim of determining the effect of bacitracin (BAC), zinc bacitracin (BACZn), p-chloromercuribenzoic acid (PCMBA) and 5,5′-dithiobis(2-nitrobenzoic acid) (DTNB) on the in vitro growth of Leishmanias in a liquid medium, different concentrations of the inhibitors cited above, 0 mM, 0.05 mM, 0.1 mM, 0.2 mM, 0.5 mM, 1 mM, 1.5 mM, 2 mM, 2.5 mM and 5 mM were added to RPMI supplemented with 5% fetal calf serum and containing 2×10^6/ml of parasites in the exponential growth phase. The parasites were incubated at 26° C. and counted every 24 hours over 96 hours. The parasites were counted on Mallassez cells.
The PDI inhibitors described in paragraph (1—) were tested with the aim of evaluating their capacities to inhibit the in vitro growth of parasites. To this end, different quantities of inhibitors were added to RPMI containing 2×10^6/ml of parasites in the exponential growth phase. The parasites were incubated at 26° C. and counted every 24 hours over 96 hours. The parasites were counted on Mallassez cells.

[2] = test system: L. major GLC94 isolate promastigotes; assay: Evolution of the disease in BALB/c mice infected with L. major GLC94 promastigotes, lesion size; format: in vivo
Source text: Sensitive BALB/c mice were infected with 10^6 promastigotes from the GLC94 isolate into the plantar pad and treated or not treated with bacitracin. The treatment was halted 9 weeks after infection (the arrow indicates treatment stoppage).
The availability of zinc bacitracin, which already forms a weapon in the therapeutic arsenal, has allowed it to be tested on the evolution of infection in the BALB/c mouse with L. major. Mice were infected with promastigotes in the stationary growth phase (10^6 promastigotes per paw) of the GLC94 isolate into the plantar pad of the rear paw and treated with a pomade based on 5 mM or 25 mM of BACZn (prepared in Vaseline). Treatment with the pomade was started 48 hours after injecting the parasites, by dint of one application per day over 5 days of the week. Mice infected in the same manner and treated with Vaseline were used as the control. The lesion size was measured each week.

[3] = test system: recombinant LmPDI; assay: Inhibition of reactivation of scrambled RNase A by recombinant LmPDI (thio-disulfide oxido-reductase activity); format: biochemical, Leishmania major; details: for inhibition of rLmPDI activity: FIG. 12; for concentration at which LmPDI activity is completely inhibited: inhibitors tested at 0.01, 0.1, 0.5 and 2 mM
Experimental: (§1) Scrambled RNase A (8 μM) was incubated in a buffer containing 4.5 mM cCMP, 1 mM glutathione GSH, 0.2 mM glutathione disulfide GSSH, 2 mM EDTA and 100 mM of Tris-HCl pH 8 in the presence of bovine serum albumin (BSA) (1.4 μM) as a negative control, bovine protein disulfide-isomerase (1.4 μM) as a positive control, or recombinant LmPDI (1.4 μM) for 30 minutes at 25° C. RNase A reactivation was determined by measuring the RNase A activity at 296 nm every 5 minutes, as described in the literature (Lyles and Gilbert, 1991).
as §1, with “The scrambled RNase” for “Scrambled RNase”, “mM Tris-HCl,” for “mM of Tris-HCl”, “pH 8,” for “pH 8”, “5 minutes for 30 minutes” for “5 minutes,”
The experimental conditions for the thio-disulfide oxido-reductase activity inhibition tests for recombinant LmPDI were strictly identical to those described in the paragraph “Reactivation of RNase A in the presence of recombinant LmPDI protein”, except that the reactions were carried out in the presence of 0.01 mM, 0.1 mM, 0.5 mM and 2 mM of the following PDI inhibitors: • bacitracin; • zinc bacitracin; • p-chloromercuribenzoic acid (pCMBA); • tocinoic acid. d) Inhibition of Parasite (L. Major) Growth in a Liquid Medium
1—Evaluation of the inhibition of recombinant LmPDI. The detailed technique for analyzing the PDI activity of LmPDI was described in Example 2 and in the Materials and Methods section above. The same technique can be used to evaluate the capacity of certain PDI inhibitors which are known or still to be identified (using a molecular model of LmPDI), by adding different concentrations of potential inhibitors to the reaction volume. The results are expressed as the percentage inhibition compared with the buffer alone. Only molecules with a significant and dose-dependent LmPDI inhibiting activity are retained.
With the aim of determining whether the different PDI inhibitors described in the literature could inhibit the thio-disulfide oxido-reductase activity of LmPDI, the capacity of these inhibitors to block the enzymatic activity of LmPDI synthesized in E. coli then purified was studied in an in vitro test, at different-concentrations. The inhibitors were: • bacitracin; • zinc bacitracin; • p-chloromercuribenzoic acid (pCMBA); • tocinoic acid.
Twenty milligrams of RNase A (Amersham.-Pharmacia) was denatured in a buffer composed of 0.15 M dithiothreitol, 6M guanidine HCl and 0.1 M Tris-HCl, pH 8.6 for 18 hours at ambient temperature. The scrambled RNase was then purified on a Sephadex G25 column equilibrated in HCl 0.01 M and quantified by spectrophotometry at 275 nm.
In a glutathione-based reducing buffer, PDI catalyzes renaturing of scrambled RNase (Gilbert, 1998). Restoration of RNase activity was measured by spectrophotometry in the presence of cytidine 2′-3′-cyclic monophosphate (cCMP) as a substrate. 8 μM of scrambled RNase, alone or in the presence of 1.4 μM of bovine serum albumin (BSA) or 1.4 μM of rLmPDI was mixed in a buffer containing 4.5 mM of cCMP, 1 mM of reduced glutathione (GSH), 200 μM of oxidized glutathione (GSSG), 2 mM EDTA and 100 mM Tris-Cl, pH 8. The reaction was carried out at ambient temperature for 30 minutes. The hydrolysis of cCMP resulting from the renaturing of RNase was recorded by measuring the absorbance at 296 nm every 5 minutes for the half hour of the reaction.
The activity of the recombinant LmPDI (rLmPDI) was measured in the presence of different concentrations of bacitracin (BAC 0.01 mM-2 mM) and zinc bacitracin (BACZn, 0.01 mM-2 mM).

[4] = test system: L. major GLC94 isolate promastigotes; details: treatments used in man; general statement; cited from earlier work
[5] = test system: GLC94 promastigotes; assay: In vitro growth kinetics of L. major promastigotes in the presence of zinc bacitracin; format: cell-based, Leishmania major; details: FIG. 13
Experimental: FIG. 13 illustrates the inhibition of the multiplication of GLC94 promastigotes by zinc bacitracin. The effect of zinc bacitracin (BACZn) on the multiplication of GLC94 promastogotes was determined in vitro. Different concentrations of inhibitor were tested to analyze their effect on the capacity of the parasites to multiply in vitro. The control (C) was constituted by parasites cultivated in a complete medium in the absence of inhibitors.
To this end, promastigotes from the GLC94 isolate were cultured on a medium based on coagulated rabbit serum for two days. […] Promastigotes cultured in complete medium in the absence of inhibitors were used as the control. Monitoring was by counting the parasites at 48, 72 and 96 hours.

O=C(O)c1cc(SSc2ccc([N+](=O)[O-])c(C(=O)O)c2)ccc1[N+](=O)[O-] [DTNB, 5,5′-dithiobis(2-nitrobenzoic acid)]
effect on the growth of Leishmanias in a liquid medium ([1]; in the concentrations used (0 to 5 mM), FIG. 11): did not appear to have a very large effect

CC[C@H](C)[C@H](N)C1=N[C@H](C(=O)N[C@@H](CC(C)C)C(=O)N[C@H](CCC(=O)O)C(=O)N[C@H](C(=O)N[C@H]2CCCCNC(=O)[C@H](CC(N)=O)NC(=O)[C@@H](CC(=O)O)NC(=O)[C@H](Cc3cnc[nH]3)NC(=O)[C@@H](Cc3ccccc3)NC(=O)[C@H]([C@@H](C)CC)NC(=O)[C@@H](CCCN)NC2=O)[C@@H](C)CC)CS1 [bacitracin] ({Ileψ(thiazoline)Cys}-L[dE]IK[dOrn]I[dF]H[dD]N; lactam 4-C)
mice with lesion attenuation ([2]; pomade 5 mM): 2 out of 3
mice with lesion attenuation ([2]; pomade 25 mM): 2 out of 4
growth of Leishmania in a liquid medium (summary statement) [1]: inhibits the growth
inhibition of rLmPDI activity ([3]; 0.1 mM): 50%
inhibition of rLmPDI activity ([3]; 0.5 mM): 70%
inhibition of rLmPDI activity ([3]; 2 mM): 100%
concentration at which LmPDI activity is completely inhibited ([3]; FIG. 10): 2 mM

CNC[C@H](O)[C@@H](O)[C@H](O)[C@H](O)CO.[O]=[Sb](=[O])[OH] [glucantime]
effect on the disease induced in the BALB/c mouse [4]: little effect

O=C(O)c1cc[c]([Hg][Cl])cc1 [pCMBA, p-chloromercuribenzoic acid]
concentration that completely inhibited the growth of L. major in a liquid medium [1]: 0.5 mM
concentration at which LmPDI activity is completely inhibited ([3]; FIG. 10): 0.01 mM

O=S(=O)(O)c1cc[c]([Hg][Cl])cc1 [pCMBS, p-chloromercuribenzene sulfonic acid]
growth of Leishmania in a liquid medium (summary statement) [1]: inhibits the growth

NC[C@@H]1O[C@H](O[C@H]2[C@@H](O)[C@H](O[C@@H]3[C@@H](O)[C@H](N)C[C@H](N)[C@H]3O[C@H]3O[C@H](CO)[C@@H](O)[C@H](O)[C@H]3N)O[C@@H]2CO)[C@H](N)[C@@H](O)[C@@H]1O [paramomycin]
effect on the disease induced in the BALB/c mouse [4]: little effect

tocinoic acid (CYIQNC; not fully specified (bridges); cysteine pairing not given here; UniProt P01178 20-25, looked up, fragment)
effect on the activity of LmPDI ([3]; FIG. 10, at the concentrations employed (0.01 to 2 mM)): did not appear to have a very great effect

zinc bacitracin
progress of the disease (lesion size) ([2]; pomade in Vaseline applied locally at the injection site, from 48 h after infection, preliminary, FIG. 14): attenuates the progress of the disease
concentration that completely inhibited the growth of L. major in a liquid medium [1]: 2 mM
growth of parasites ([5]; 1 mM): no effect
growth of parasites ([5]; 1.5 mM): partially inhibits
growth of parasites ([5]; 2 mM): complete inhibition
growth of parasites ([5]; 5 mM): complete inhibition
inhibition of rLmPDI activity ([3]; 0.1 mM): 50%
inhibition of rLmPDI activity ([3]; 0.5 mM): 70%
inhibition of rLmPDI activity ([3]; 2 mM): 100%
concentration at which LmPDI activity is completely inhibited ([3]; FIG. 10): 2 mM
